Test results: patent US20210289787A1, “HERBICIDAL MIXTURES COMPRISING ISOXAFLUTOLE, TRIFLUDIMOXAZIN AND AN IMIDAZOLINONE HERBICIDE; AND THEIR USE IN SOYBEAN AND COTTON CULTURES” (BASF SE, priority 2018, published 2021)

Test system: SETVI (Setaria viridis, Green foxtail)
Experiment: post-emergence greenhouse experiment, herbicidal action (synergism by Colby)
Format: in vivo

SMILES: CS(=O)(=O)c1cc(C(F)(F)F)ccc1C(=O)c1cnoc1C1CC1 [Isoxaflutole, isoxaflutole]
- Herbicidal action against SETVI, Found (growth stage 13 (6 to 10 cm), scale 0 to 100, test period 20 days, isoxaflutole 25 g/ha alone): 20
- Herbicidal action against SETVI, Found (growth stage 13, scale 0 to 100, 20 days, isoxaflutole 12.5 g/ha alone): 20
